From patent US11952584B2, “Functional peptides having antimicrobial activity against phytopathogenic microorganisms” (TOYOTA JIDOSHA KABUSHIKI KAISHA, priority 2019, dated 2024)
Where “and” joins values, the source holds several entries; their conditions need not be identical. Equal entries are not always repeated. Where two headings read alike, the source gives them in different places.

Columns and labels:
Type in all cases: cell-based
[1] = test system: Colletotrichum destructivum; conditions: 25° C., 1 day or 2 days
[2] = test system: Colletotrichum orbiculare; conditions: 25° C., 1 day or 2 days
Pyricularia oryzae = conditions: 25° C., 1 day or 2 days
Botrytis cinerea = conditions: 25° C., 1 day or 2 days
Fusarium oxysporum = test system: Fusarium oxysporum

FWRIW (listed as Solanum lycopersicum) [TsORF18-2-5aa-14]
0: Plate antimicrobial activity test Colletotrichum destructivum (level) ([1]; peptide 1 μM) | Plate antimicrobial activity test Colletotrichum destructivum (level) ([1]; peptide 10 μM) | Plate antimicrobial activity test Colletotrichum destructivum (level) ([1]; peptide 100 μM) | Plate antimicrobial activity test Collectotrichum orbiculare (level) ([2]; peptide 1 μM) | Plate antimicrobial activity test Collectotrichum orbiculare (level) ([2]; peptide 10 μM) | Plate antimicrobial activity test Collectotrichum orbiculare (level) ([2]; peptide 100 μM) | Plate antimicrobial activity test Pyricularia oryzae (level) (Pyricularia oryzae; peptide 1 μM) | Plate antimicrobial activity test Pyricularia oryzae (level) (Pyricularia oryzae; peptide 10 μM) | Plate antimicrobial activity test Pyricularia oryzae (level) (Pyricularia oryzae; peptide 100 μM) | Plate antimicrobial activity test Botrytis cinerea (level) (Botrytis cinerea; peptide 1 μM) | Plate antimicrobial activity test Botrytis cinerea (level) (Botrytis cinerea; peptide 10 μM) | Plate antimicrobial activity test Botrytis cinerea (level) (Botrytis cinerea; peptide 100 μM) | Plate antimicrobial activity test Fusarium oxysporum (level) (Fusarium oxysporum)

RIWKGKTS (listed as Solanum lycopersicum) [TsORF18-2-8aa-16]
1: Plate antimicrobial activity test Collectotrichum orbiculare (level) ([2]; peptide 100 μM)
1 and 0: Plate antimicrobial activity test Fusarium oxysporum (level) (Fusarium oxysporum)
0: Plate antimicrobial activity test Colletotrichum destructivum (level) ([1]; peptide 1 μM) | Plate antimicrobial activity test Colletotrichum destructivum (level) ([1]; peptide 10 μM) | Plate antimicrobial activity test Colletotrichum destructivum (level) ([1]; peptide 100 μM) | Plate antimicrobial activity test Collectotrichum orbiculare (level) ([2]; peptide 1 μM) | Plate antimicrobial activity test Collectotrichum orbiculare (level) ([2]; peptide 10 μM) | Plate antimicrobial activity test Pyricularia oryzae (level) (Pyricularia oryzae; peptide 1 μM) | Plate antimicrobial activity test Pyricularia oryzae (level) (Pyricularia oryzae; peptide 10 μM) | Plate antimicrobial activity test Pyricularia oryzae (level) (Pyricularia oryzae; peptide 100 μM) | Plate antimicrobial activity test Botrytis cinerea (level) (Botrytis cinerea; peptide 1 μM) | Plate antimicrobial activity test Botrytis cinerea (level) (Botrytis cinerea; peptide 10 μM)
2: Plate antimicrobial activity test Botrytis cinerea (level) (Botrytis cinerea; peptide 100 μM)

PAFSERTR (listed as Solanum lycopersicum) [TsORF18-2-8aa-5]
0: Plate antimicrobial activity test Colletotrichum destructivum (level) ([1]; peptide 1 μM) | Plate antimicrobial activity test Colletotrichum destructivum (level) ([1]; peptide 10 μM) | Plate antimicrobial activity test Colletotrichum destructivum (level) ([1]; peptide 100 μM) | Plate antimicrobial activity test Collectotrichum orbiculare (level) ([2]; peptide 1 μM) | Plate antimicrobial activity test Collectotrichum orbiculare (level) ([2]; peptide 10 μM) | Plate antimicrobial activity test Collectotrichum orbiculare (level) ([2]; peptide 100 μM) | Plate antimicrobial activity test Pyricularia oryzae (level) (Pyricularia oryzae; peptide 1 μM) | Plate antimicrobial activity test Pyricularia oryzae (level) (Pyricularia oryzae; peptide 10 μM) | Plate antimicrobial activity test Pyricularia oryzae (level) (Pyricularia oryzae; peptide 100 μM) | Plate antimicrobial activity test Botrytis cinerea (level) (Botrytis cinerea; peptide 1 μM) | Plate antimicrobial activity test Botrytis cinerea (level) (Botrytis cinerea; peptide 10 μM) | Plate antimicrobial activity test Botrytis cinerea (level) (Botrytis cinerea; peptide 100 μM) | Plate antimicrobial activity test Fusarium oxysporum (level) (Fusarium oxysporum)

FSERT (listed as Solanum lycopersicum) [TsORF18-2-5aa-7]
0: Plate antimicrobial activity test Colletotrichum destructivum (level) ([1]; peptide 1 μM) | Plate antimicrobial activity test Colletotrichum destructivum (level) ([1]; peptide 10 μM) | Plate antimicrobial activity test Colletotrichum destructivum (level) ([1]; peptide 100 μM) | Plate antimicrobial activity test Collectotrichum orbiculare (level) ([2]; peptide 1 μM) | Plate antimicrobial activity test Collectotrichum orbiculare (level) ([2]; peptide 10 μM) | Plate antimicrobial activity test Collectotrichum orbiculare (level) ([2]; peptide 100 μM) | Plate antimicrobial activity test Pyricularia oryzae (level) (Pyricularia oryzae; peptide 1 μM) | Plate antimicrobial activity test Pyricularia oryzae (level) (Pyricularia oryzae; peptide 10 μM) | Plate antimicrobial activity test Pyricularia oryzae (level) (Pyricularia oryzae; peptide 100 μM) | Plate antimicrobial activity test Botrytis cinerea (level) (Botrytis cinerea; peptide 1 μM) | Plate antimicrobial activity test Botrytis cinerea (level) (Botrytis cinerea; peptide 10 μM) | Plate antimicrobial activity test Botrytis cinerea (level) (Botrytis cinerea; peptide 100 μM) | Plate antimicrobial activity test Fusarium oxysporum (level) (Fusarium oxysporum)

SERTRKFW (listed as Solanum lycopersicum) [TsORF18-2-8aa-8]
0: Plate antimicrobial activity test Colletotrichum destructivum (level) ([1]; peptide 1 μM) | Plate antimicrobial activity test Colletotrichum destructivum (level) ([1]; peptide 10 μM) | Plate antimicrobial activity test Colletotrichum destructivum (level) ([1]; peptide 100 μM) | Plate antimicrobial activity test Collectotrichum orbiculare (level) ([2]; peptide 1 μM) | Plate antimicrobial activity test Collectotrichum orbiculare (level) ([2]; peptide 10 μM) | Plate antimicrobial activity test Collectotrichum orbiculare (level) ([2]; peptide 100 μM) | Plate antimicrobial activity test Pyricularia oryzae (level) (Pyricularia oryzae; peptide 1 μM) | Plate antimicrobial activity test Pyricularia oryzae (level) (Pyricularia oryzae; peptide 10 μM) | Plate antimicrobial activity test Pyricularia oryzae (level) (Pyricularia oryzae; peptide 100 μM) | Plate antimicrobial activity test Botrytis cinerea (level) (Botrytis cinerea; peptide 1 μM) | Plate antimicrobial activity test Botrytis cinerea (level) (Botrytis cinerea; peptide 10 μM) | Plate antimicrobial activity test Botrytis cinerea (level) (Botrytis cinerea; peptide 100 μM) | Plate antimicrobial activity test Fusarium oxysporum (level) (Fusarium oxysporum)

TRKFW (listed as Solanum lycopersicum) [TsORF18-2-5aa-11]
0: Plate antimicrobial activity test Colletotrichum destructivum (level) ([1]; peptide 1 μM) | Plate antimicrobial activity test Colletotrichum destructivum (level) ([1]; peptide 10 μM) | Plate antimicrobial activity test Colletotrichum destructivum (level) ([1]; peptide 100 μM) | Plate antimicrobial activity test Collectotrichum orbiculare (level) ([2]; peptide 1 μM) | Plate antimicrobial activity test Collectotrichum orbiculare (level) ([2]; peptide 10 μM) | Plate antimicrobial activity test Collectotrichum orbiculare (level) ([2]; peptide 100 μM) | Plate antimicrobial activity test Pyricularia oryzae (level) (Pyricularia oryzae; peptide 1 μM) | Plate antimicrobial activity test Pyricularia oryzae (level) (Pyricularia oryzae; peptide 10 μM) | Plate antimicrobial activity test Pyricularia oryzae (level) (Pyricularia oryzae; peptide 100 μM) | Plate antimicrobial activity test Botrytis cinerea (level) (Botrytis cinerea; peptide 1 μM) | Plate antimicrobial activity test Botrytis cinerea (level) (Botrytis cinerea; peptide 10 μM) | Plate antimicrobial activity test Botrytis cinerea (level) (Botrytis cinerea; peptide 100 μM) | Plate antimicrobial activity test Fusarium oxysporum (level) (Fusarium oxysporum)

YYGFPAFS (listed as Solanum lycopersicum) [TsORF18-2-8aa-1]
0: Plate antimicrobial activity test Colletotrichum destructivum (level) ([1]; peptide 1 μM) | Plate antimicrobial activity test Colletotrichum destructivum (level) ([1]; peptide 10 μM) | Plate antimicrobial activity test Colletotrichum destructivum (level) ([1]; peptide 100 μM) | Plate antimicrobial activity test Collectotrichum orbiculare (level) ([2]; peptide 1 μM) | Plate antimicrobial activity test Collectotrichum orbiculare (level) ([2]; peptide 10 μM) | Plate antimicrobial activity test Collectotrichum orbiculare (level) ([2]; peptide 100 μM) | Plate antimicrobial activity test Pyricularia oryzae (level) (Pyricularia oryzae; peptide 1 μM) | Plate antimicrobial activity test Pyricularia oryzae (level) (Pyricularia oryzae; peptide 10 μM) | Plate antimicrobial activity test Pyricularia oryzae (level) (Pyricularia oryzae; peptide 100 μM) | Plate antimicrobial activity test Botrytis cinerea (level) (Botrytis cinerea; peptide 1 μM) | Plate antimicrobial activity test Botrytis cinerea (level) (Botrytis cinerea; peptide 10 μM) | Plate antimicrobial activity test Botrytis cinerea (level) (Botrytis cinerea; peptide 100 μM) | Plate antimicrobial activity test Fusarium oxysporum (level) (Fusarium oxysporum)

ILLSLEIFERKFSRSVWYYGFP [TsORF18-1]
0: Plate antimicrobial activity test Colletotrichum destructivum (level) ([1]; peptide 1 μM) | Plate antimicrobial activity test Colletotrichum destructivum (level) ([1]; peptide 10 μM) | Plate antimicrobial activity test Colletotrichum destructivum (level) ([1]; peptide 100 μM) | Plate antimicrobial activity test Collectotrichum orbiculare (level) ([2]; peptide 1 μM) | Plate antimicrobial activity test Collectotrichum orbiculare (level) ([2]; peptide 10 μM) | Plate antimicrobial activity test Collectotrichum orbiculare (level) ([2]; peptide 100 μM) | Plate antimicrobial activity test Pyricularia oryzae (level) (Pyricularia oryzae; peptide 1 μM) | Plate antimicrobial activity test Pyricularia oryzae (level) (Pyricularia oryzae; peptide 10 μM) | Plate antimicrobial activity test Pyricularia oryzae (level) (Pyricularia oryzae; peptide 100 μM) | Plate antimicrobial activity test Botrytis cinerea (level) (Botrytis cinerea; peptide 1 μM) | Plate antimicrobial activity test Botrytis cinerea (level) (Botrytis cinerea; peptide 10 μM) | Plate antimicrobial activity test Botrytis cinerea (level) (Botrytis cinerea; peptide 100 μM) | Plate antimicrobial activity test Fusarium oxysporum (level) (Fusarium oxysporum)

KGKTS (listed as Solanum lycopersicum) [TsORF18-2-5aa-19]
0: Plate antimicrobial activity test Colletotrichum destructivum (level) ([1]; peptide 1 μM) | Plate antimicrobial activity test Colletotrichum destructivum (level) ([1]; peptide 10 μM) | Plate antimicrobial activity test Colletotrichum destructivum (level) ([1]; peptide 100 μM) | Plate antimicrobial activity test Collectotrichum orbiculare (level) ([2]; peptide 1 μM) | Plate antimicrobial activity test Collectotrichum orbiculare (level) ([2]; peptide 10 μM) | Plate antimicrobial activity test Collectotrichum orbiculare (level) ([2]; peptide 100 μM) | Plate antimicrobial activity test Pyricularia oryzae (level) (Pyricularia oryzae; peptide 1 μM) | Plate antimicrobial activity test Pyricularia oryzae (level) (Pyricularia oryzae; peptide 10 μM) | Plate antimicrobial activity test Pyricularia oryzae (level) (Pyricularia oryzae; peptide 100 μM) | Plate antimicrobial activity test Botrytis cinerea (level) (Botrytis cinerea; peptide 1 μM) | Plate antimicrobial activity test Botrytis cinerea (level) (Botrytis cinerea; peptide 10 μM) | Plate antimicrobial activity test Botrytis cinerea (level) (Botrytis cinerea; peptide 100 μM) | Plate antimicrobial activity test Fusarium oxysporum (level) (Fusarium oxysporum)

ERTRK (listed as Solanum lycopersicum) [TsORF18-2-5aa-9]
0: Plate antimicrobial activity test Colletotrichum destructivum (level) ([1]; peptide 1 μM) | Plate antimicrobial activity test Colletotrichum destructivum (level) ([1]; peptide 10 μM) | Plate antimicrobial activity test Colletotrichum destructivum (level) ([1]; peptide 100 μM) | Plate antimicrobial activity test Collectotrichum orbiculare (level) ([2]; peptide 1 μM) | Plate antimicrobial activity test Collectotrichum orbiculare (level) ([2]; peptide 10 μM) | Plate antimicrobial activity test Collectotrichum orbiculare (level) ([2]; peptide 100 μM) | Plate antimicrobial activity test Pyricularia oryzae (level) (Pyricularia oryzae; peptide 1 μM) | Plate antimicrobial activity test Pyricularia oryzae (level) (Pyricularia oryzae; peptide 10 μM) | Plate antimicrobial activity test Pyricularia oryzae (level) (Pyricularia oryzae; peptide 100 μM) | Plate antimicrobial activity test Botrytis cinerea (level) (Botrytis cinerea; peptide 1 μM) | Plate antimicrobial activity test Botrytis cinerea (level) (Botrytis cinerea; peptide 10 μM) | Plate antimicrobial activity test Botrytis cinerea (level) (Botrytis cinerea; peptide 100 μM) | Plate antimicrobial activity test Fusarium oxysporum (level) (Fusarium oxysporum)

GFPAF (listed as Solanum lycopersicum) [TsORF18-2-5aa-3]
0: Plate antimicrobial activity test Colletotrichum destructivum (level) ([1]; peptide 1 μM) | Plate antimicrobial activity test Colletotrichum destructivum (level) ([1]; peptide 10 μM) | Plate antimicrobial activity test Colletotrichum destructivum (level) ([1]; peptide 100 μM) | Plate antimicrobial activity test Collectotrichum orbiculare (level) ([2]; peptide 1 μM) | Plate antimicrobial activity test Collectotrichum orbiculare (level) ([2]; peptide 10 μM) | Plate antimicrobial activity test Collectotrichum orbiculare (level) ([2]; peptide 100 μM) | Plate antimicrobial activity test Pyricularia oryzae (level) (Pyricularia oryzae; peptide 1 μM) | Plate antimicrobial activity test Pyricularia oryzae (level) (Pyricularia oryzae; peptide 10 μM) | Plate antimicrobial activity test Pyricularia oryzae (level) (Pyricularia oryzae; peptide 100 μM) | Plate antimicrobial activity test Botrytis cinerea (level) (Botrytis cinerea; peptide 1 μM) | Plate antimicrobial activity test Botrytis cinerea (level) (Botrytis cinerea; peptide 10 μM) | Plate antimicrobial activity test Botrytis cinerea (level) (Botrytis cinerea; peptide 100 μM) | Plate antimicrobial activity test Fusarium oxysporum (level) (Fusarium oxysporum)

RTRKF (listed as Solanum lycopersicum) [TsORF18-2-5aa-10]
1: Plate antimicrobial activity test Botrytis cinerea (level) (Botrytis cinerea; peptide 100 μM)
0: Plate antimicrobial activity test Colletotrichum destructivum (level) ([1]; peptide 1 μM) | Plate antimicrobial activity test Colletotrichum destructivum (level) ([1]; peptide 10 μM) | Plate antimicrobial activity test Colletotrichum destructivum (level) ([1]; peptide 100 μM) | Plate antimicrobial activity test Collectotrichum orbiculare (level) ([2]; peptide 1 μM) | Plate antimicrobial activity test Collectotrichum orbiculare (level) ([2]; peptide 10 μM) | Plate antimicrobial activity test Collectotrichum orbiculare (level) ([2]; peptide 100 μM) | Plate antimicrobial activity test Pyricularia oryzae (level) (Pyricularia oryzae; peptide 1 μM) | Plate antimicrobial activity test Pyricularia oryzae (level) (Pyricularia oryzae; peptide 10 μM) | Plate antimicrobial activity test Pyricularia oryzae (level) (Pyricularia oryzae; peptide 100 μM) | Plate antimicrobial activity test Botrytis cinerea (level) (Botrytis cinerea; peptide 1 μM) | Plate antimicrobial activity test Botrytis cinerea (level) (Botrytis cinerea; peptide 10 μM) | Plate antimicrobial activity test Fusarium oxysporum (level) (Fusarium oxysporum)

AFSER (listed as Solanum lycopersicum) [TsORF18-2-5aa-6]
0: Plate antimicrobial activity test Colletotrichum destructivum (level) ([1]; peptide 1 μM) | Plate antimicrobial activity test Colletotrichum destructivum (level) ([1]; peptide 10 μM) | Plate antimicrobial activity test Colletotrichum destructivum (level) ([1]; peptide 100 μM) | Plate antimicrobial activity test Collectotrichum orbiculare (level) ([2]; peptide 1 μM) | Plate antimicrobial activity test Collectotrichum orbiculare (level) ([2]; peptide 10 μM) | Plate antimicrobial activity test Collectotrichum orbiculare (level) ([2]; peptide 100 μM) | Plate antimicrobial activity test Pyricularia oryzae (level) (Pyricularia oryzae; peptide 1 μM) | Plate antimicrobial activity test Pyricularia oryzae (level) (Pyricularia oryzae; peptide 10 μM) | Plate antimicrobial activity test Pyricularia oryzae (level) (Pyricularia oryzae; peptide 100 μM) | Plate antimicrobial activity test Botrytis cinerea (level) (Botrytis cinerea; peptide 1 μM) | Plate antimicrobial activity test Botrytis cinerea (level) (Botrytis cinerea; peptide 10 μM) | Plate antimicrobial activity test Botrytis cinerea (level) (Botrytis cinerea; peptide 100 μM) | Plate antimicrobial activity test Fusarium oxysporum (level) (Fusarium oxysporum)
